Results: patent US11479587B2, “Cationic intrinsically disordered antimicrobial peptides” (priority 2016, dated 2022)
Values after ≈ are worked out from the molar mass of the structure shown. Values joined by “and” are separate entries in the source; they are usually repeats but may differ in a detail not shown here. Equal values may be shown once. Non-standard residues stand in square brackets, D forms with d. Residues, ends and D or L forms follow the SMILES beside them. No end group written: not given here. *: point of attachment. Palmitoyl = CCCCCCCCCCCCCCCC(=O)*; Dap = NC[C@H](N)C(=O)O

Legend:
[1] = Cytotoxicity (resazurin) assay
Method: For the cytotoxicity (resazurin) assay, HEK293 cells were counted manually in a Neubauer haemocytometer and plated at a density of 4000 cells/well into each well of the 384-well plates containing the 25×(2 μl) concentrated compounds. The medium used was Dulbecco's modified eagle medium (DMEM) supplemented with 10% foetal bovine serum (FBS). Cells were incubated together with the compounds for 20 h at 37° C., 5% CO2. To measure cytotoxicity, 5 μl (equals 100 μM final) resazurin was added to each well after incubation, and incubated for further 3 h at 37° C. with 5% CO2.
After final incubation fluorescence intensity was measured as F ex 560/10 nm, em 590/10 nm (F560/590) using a Tecan M1000 Pro monochromator plate reader. […] The concentration dependent percentage cytotoxicity was fitted to a dose response function (using Pipeline Pilot) and CC50 values determined.

C. albicans ATCC 928 = conditions: for MIC, C. albicans ATCC 90028: ATCC 928; for MIC: ATCC 928, 18 h, pH 7.4
[2] = system: methicillin-resistant S. aureus strain (ATCC 43300); assay type: cell-based, Staphylococcus aureus; conditions: ATCC 43300, 18 h
Method: Furthermore, sensitivity of a methicillin-resistant S. aureus strain (ATCC 43300) was investigated for palmitoylated CIDAMPs in a microtiter plate screening model, with incubation in Mueller-Hinton medium at 37° C. for 18 h using resazurin as a marker for cell viability.
A sample of each culture was then diluted 40-fold in fresh broth and incubated at 37° C. for 1.5-3 h. […] All the plates were covered and incubated at 37° C. for 18 h.
(§1) Inhibition of bacterial growth was determined using resazurin as a marker for cell viability. Resazurin was added to each well, at 0.001% final concentration, and plates incubated at 37° C. for 2 h. Fluorescence intensity was measured, using F (top read), ex 560/10 nm, em 590/10 nm, using a Tecan M1000 Pro monochromator plate reader.

Hemolysis assay = assay type: cell-based; conditions: for HC50 at 1 h: human, washed erythrocytes from EDTA-blood, pH 7.4
Method: (§2) For the hemolysis assays EDTA-blood was centrifuged at 800×g for 10 min, and the plasma and buffy coat were removed. The erythrocytes were washed three times and resuspended in 5% PBS, pH 7.4. The cells were then incubated with end-over-end rotation for 1 h at 37° C. in the presence of different concentrations of peptides (0, 3, 10, 30, 60 μm). 0.1% Triton X-100 (Sigma-Aldrich) served as positive control. The samples were then centrifuged at 800×g for 10 min.
(§3) The absorbance of hemoglobin release was measured at 540 nm and is expressed as % of Triton X-100-induced hemolysis. These values of triplicates were plotted with Graph Pad Prism 4 as a dose response curve and the CC50 was determined.

erythrocytes = assay: Hemolysis assay; assay type: cell-based
Method: as §2, §3

A. baumannii ATCC 19606 = assay type: cell-based, Acinetobacter baumannii; conditions: ATCC 19606, 2 h
Method: as §1

[3] = system: Burkholderia cepacia ATCC 25416; assay: CFU-assay, Burkholderia cepacia-cidal activity; assay type: cell-based
P. aeruginosa ATCC 10145 = assay: CFU-assay, P. aeruginosa-cidal activity; assay type: cell-based, Pseudomonas aeruginosa; conditions: pH 5.5, 0.25% glucose
S. aureus ATCC 6538 = assay: CFU-assay, S. aureus-cidal activity; assay type: cell-based, Staphylococcus aureus; conditions: pH 5.5, 0.25% glucose
Summary of the method: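 Bactericidal CFU-assay in nutrient-deficient 10 mM sodium phosphate buffer pH 5.5 with 0.25% glucose, counting surviving colonies across twofold peptide dilutions from 300 μg/ml to 19 ng/ml. Output is minimal bactericidal concentration (e.g. MBC90, MBC100); some peptides also tested at pH 7.0.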

[4] = system: Klebsiella pneumoniae ATCC 13883; assay: CFU-assay, Klebsiella pneumoniae-cidal activity; assay type: cell-based

Compound	MIC, C. neoformans ATCC 208821 (C. neoformans)	CC50 [1]	MIC (C. albicans ATCC 928)	MIC, S. aureus ATCC 43300 [2]	HC50 (Hemolysis assay)	hemolytic activity (in words) (erythrocytes)	further results
CCCCCCCCCCCCCCCC(=O)N[C@@H](CO)C(=O)N[C@@H](Cc1c[nH]cn1)C(=O)N[C@@H](Cc1c[nH]cn1)C(=O)N[C@@H](CCCNC(=N)N)C(=O)N[C@@H](Cc1c[nH]cn1)C(=O)N[C@@H](Cc1ccccc1)C(=O)N[C@@H](CCCNC(=N)N)C(=O)N[C@@H](CO)C(=O)N[C@@H](Cc1c[nH]cn1)C(=O)N[C@@H](CCC(N)=O)C(=O)N[C@@H](CS)C(=O)N[C@@H](CCCNC(=N)N)C(=O)N[C@@H](CCCNC(=N)N)C(=O)O [Pal-LCE3C55-67] (HELM PEPTIDE1{[CCCCCCCCCCCCCCCC(=O)[*:2]].S.H.H.R.H.F.R.S.H.Q.C.R.R}$$$$V2.0)	≥1 µg/mL	> 32 µg/mL	1 to 32 µg/mL	≥32 µg/mL	> 100 µg/mL	–	MIC, C. albicans ATCC 90028 (C. albicans ATCC 928): ≥16 µg/mL
CCCCCCCCCCCCCCCC(=O)NCC(=O)N[C@@H](CN)C(=O)NCC(=O)N[C@@H](CN)C(=O)O [Pal-GDap4, Pal-GDapGDap] (Palmitoyl-G[Dap]G[Dap]-OH)	≥1 µg/mL	> 32 µg/mL	1 to 32 µg/mL	≥8 µg/mL	> 300 µg/mL	low hemolytic activity	MIC, C. albicans ATCC 90028 (C. albicans ATCC 928): ≥8 µg/mL
CCCCCCCCCCCCCCCC(=O)NCC(=O)N[C@@H](CCCCN)C(=O)N[C@@H](CCCCN)C(=O)NCC(=O)NCC(=O)N[C@@H](CCCCN)C(=O)NCC(=O)NCC(=O)N[C@@H](CCCCN)C(=O)NCC(=O)N[C@@H](CCCCN)C(=O)NCC(=O)N[C@@H](CCCCN)C(=O)O [Pal-K-GR13] (HELM PEPTIDE1{[CCCCCCCCCCCCCCCC(=O)[*:2]].G.K.K.G.G.K.G.G.K.G.K.G.K}$$$$V2.0)	–	> 32 µg/mL	–	–	> 300 µg/mL	low hemolytic activity	–
CCCCCCCCCCCCCCCC(=O)NCC(=O)N[C@@H](CCCNC(=N)N)C(=O)N[C@@H](Cc1c[nH]cn1)C(=O)NCC(=O)N[C@@H](CO)C(=O)NCC(=O)N[C@@H](CC(C)C)C(=O)NCC(=O)N[C@@H](Cc1c[nH]cn1)C(=O)N[C@@H](CO)C(=O)N[C@@H](CO)C(=O)N[C@@H](CO)C(=O)N[C@@H](Cc1c[nH]cn1)C(=O)NCC(=O)N[C@@H](CCC(N)=O)C(=O)N[C@@H](Cc1c[nH]cn1)C(=O)NCC(=O)N[C@@H](CO)C(=O)NCC(=O)N[C@@H](CO)C(=O)NCC(=O)N[C@@H](CCCNC(=N)N)C(=O)O [Pal-HR 1-18] (HELM PEPTIDE1{[CCCCCCCCCCCCCCCC(=O)[*:2]].G.R.H.G.S.G.L.G.H.S.S.S.H.G.Q.H.G.S.G.S.G.R}$$$$V2.0)	–	> 32 µg/mL and > 13.7 µM	–	–	> 300 µg/mL	low hemolytic activity	MIC, A. baumannii ATCC 19606 (A. baumannii ATCC 19606): ≥32 µg/mL; HC50 at 1 h (Hemolysis assay): > 130 µM
CCCCCCCCCCCCCCCC(=O)NCC(=O)N[C@@H](CCCNC(=N)N)C(=O)N[C@@H](CCCNC(=N)N)C(=O)NCC(=O)NCC(=O)N[C@@H](CCCNC(=N)N)C(=O)NCC(=O)NCC(=O)N[C@@H](CCCNC(=N)N)C(=O)O [Pal-GR9] (HELM PEPTIDE1{[CCCCCCCCCCCCCCCC(=O)[*:2]].G.R.R.G.G.R.G.G.R}$$$$V2.0)	–	> 32 µg/mL and > 27.4 µM	1 to 32 µg/mL	≥8 µg/mL	> 300 µg/mL	–	HC50 at 1 h (Hemolysis assay): > 257 µM
Pal-GRRGSGLGRSSSRGGRGSGSGR (Palmitoyl-GRRGSGLGRSSSRGGRGSGSGR) [Pal-HR 1-18 4H-4R]	–	–	–	–	–	–	MBC90 ([3]; pH 7.3, 0.25% glucose): 75 µg/mL; MBC100 ([3]; pH 7.3, 0.25% glucose): 300 µg/mL; MBC90 ([3]; pH 7.3, 1% TSB): 75 µg/mL; MBC100 ([3]; pH 7.3, 1% TSB): 150 µg/mL
CCCCCCCCCCCCCCCC(=O)NCC(=O)N[C@@H](CCCN)C(=O)N[C@@H](CCCN)C(=O)NCC(=O)NCC(=O)N[C@@H](CCCN)C(=O)NCC(=O)NCC(=O)N[C@@H](CCCN)C(=O)NCC(=O)N[C@@H](CCCN)C(=O)NCC(=O)N[C@@H](CCCN)C(=O)O [Pal-Orn-GR13, Pal-GOOGGOGGOGOGO] (HELM PEPTIDE1{[CCCCCCCCCCCCCCCC(=O)[*:2]].G.[Orn].[Orn].G.G.[Orn].G.G.[Orn].G.[Orn].G.[Orn]}$$$$V2.0)	–	> 32 µg/mL	–	–	> 300 µg/mL	low hemolytic activity	–
SHHRHFRSHQCRR [LCE3C55 67]	≥8 µg/mL	–	–	≥32 µg/mL	–	–	–
S-Pal-LCE3C55-75: palmitoylated peptide named among those with low hemolytic activity (SHHRHFRSHQCRRQRSNSCDR; also: S-palmitoylated, Cys not given here; UniProt Q5T5A8 55-75, looked up, fragment)	–	–	–	–	–	low hemolytic activity	–
CCCCCCCCCCCCCCCC(=O)NCC(=O)N[C@@H](CCCNC(=N)N)C(=O)N[C@@H](CCCNC(=N)N)C(=O)NCC(=O)NCC(=O)N[C@@H](CCCNC(=N)N)C(=O)O [Pal-GR6, Pal-GRRGGR] (HELM PEPTIDE1{[CCCCCCCCCCCCCCCC(=O)[*:2]].G.R.R.G.G.R}$$$$V2.0)	≥16 µg/mL	> 32 µg/mL	–	≥16 µg/mL	> 300 µg/mL	–	–
CCCCCCCCCCCCCCCC(=O)NCC(=O)N[C@@H](CCCNC(=N)N)C(=O)NCC(=O)N[C@@H](CCCNC(=N)N)C(=O)O [Pal-GR4, Pal-GRGR] (HELM PEPTIDE1{[CCCCCCCCCCCCCCCC(=O)[*:2]].G.R.G.R}$$$$V2.0)	≥8 µg/mL	> 32 µg/mL	1 to 32 µg/mL	≥8 µg/mL	100 µg/mL	–	MIC, C. albicans ATCC 90028 (C. albicans ATCC 928): ≥8 µg/mL
CCCCCCCCCCCCCCCC(=O)NCC(=O)N[C@@H](CCN)C(=O)NCC(=O)N[C@@H](CCN)C(=O)O [Pal-GDab4, Pal-GDabGDab] (HELM PEPTIDE1{[CCCCCCCCCCCCCCCC(=O)[*:2]].G.[Dab].G.[Dab]}$$$$V2.0)	≥16 µg/mL	32 µg/mL (≈ 56.1 µM)	–	≥32 µg/mL	–	–	MIC, A. baumannii ATCC 19606 (A. baumannii ATCC 19606): ≥32 µg/mL; MBC90 (P. aeruginosa ATCC 10145): 2.35 µg/mL (≈ 4.12 µM); MBC100 (P. aeruginosa ATCC 10145): 9.38 µg/mL (≈ 16.4 µM); MBC90 (S. aureus ATCC 6538): 4.7 µg/mL (≈ 8.23 µM); MBC100 (S. aureus ATCC 6538): 18.75 µg/mL (≈ 32.9 µM); CC50 (Hemolysis assay): > 100 µg/mL
Pal-SHHRPRLFHRRRH (Palmitoyl-SHHRPRLFHRRRH) [Pal-LCE-3B]	–	–	–	–	–	–	MBC90 ([4]; pH 5.5, 0.25% glucose): 0.15 µg/mL; MBC100 ([4]; pH 5.5, 0.25% glucose): 9.38 µg/mL; MBC90 ([4]; pH 7.3, 0.25% glucose): 2.35 µg/mL; MBC100 ([4]; pH 7.3, 0.25% glucose): 4.7 µg/mL
